# Source: patent publication US7579375B2, “Branched carboxylic acid compound and use thereof” (Ono Pharmaceutical Co., Ltd., priority 2003, dated 2009)
# Legend:
# 6 weeks-old male rat = assay: Long-term repetitive oral dosing, general side effect; assay type: in vivo; settings: orally once daily, 250 mg/kg per once
# Description: Each test compounds were dissolved with an aqueous solution of trisodium phosphate, and diluted with a water for injection. The obtained drug solution was orally administrated once daily to 6 weeks-old male rat by long-term repetitive dosing at a dose of 250 mg/kg per once.
# S100β = assay: Intracellular S100β content in secondary cultured astrocytes (ELISA); assay type: cell-based, rat; settings: astrocytes treated 2 weeks, control group 2177.0±147.74
# Excerpt: The 1 to 2 day-old neonatal Wistar rats (10 animals) were decapitated and sterilized their heads in ethanol. Ethanol and blood was removed in ice-cold DMEM medium (purchased from Sigma). Meningis was peeled and cortex of cerebrum was removed in ice-cold DMEM medium (purchased from Sigma) under the stereomicroscope. The cortex of cerebrum was minced with frosted glass-slides (purchased from Matsunami) to suspension in ice-cold DMEM medium (purchased from Sigma). Cell suspension was filtrated with 70 micrometer-diameter filter (falcon2350). The filtrate was centrifuged at 100×g for 3 minutes, and the pellet was re-suspended in 10% FCS (fetal calf serum)-containing DMEM medium. The washing procedure using 10% FCS-DMEM medium was repeated 3 times and cells were re-suspended in 10% FCS-DMEM medium. The obtained cell suspension was plated in 75 cm^2 flask (falcon3024) (one flask (containing 12 ml of medium) containing cells obtained from one neonatal rat), and cultured at 37° C. under an atmosphere of 5% CO2, 95% air (0 day of culture). After 2 days of culture (2 days of culture), culture media was aspirated and flask was shaken by hands to remove an unadhesive cells. The flask was washed with DMEM medium and the suspended cells ware removed. This procedure was repeated 3 times till the unadhesive cells were removed completely confirmed by microscope. Then, 10% FCS-DMEM medium was added to flask (12 ml/flask) and cultured at 37° C. under an atmosphere of 5% CO2, 95% air (medium was changed in 12 days after onset of culture).
# Primary culture of Astrocytes (19 days after onset of culture, 3 flasks) was purified by the same procedure as used in cell purification in primary culture. Then, the adhesive cells were treated with 0.05% Trypsin-1 mmol/L EDTA at 37° C. till the cells were detached. The cells were suspended in 10% FCS-DMEM medium and transferred to microtube. After centrifugation at 100×g for 3 minutes, the pellet was resuspended in 10% FCS-DMEM medium. A portion of cell suspension was mixed with an equal volume of Trypan-Blue solution. The number of living cells was measured by using the Burker-Turk counting chamber under the phase-contrast microscope. Cells were suspended in 10% FCS-DMEM medium at the cell density of 2×10^5 cells/ml and cultured in 48 well culture plate (6 plates, 0.5 ml/well) at 37° C. under an atmosphere of 5% CO2, 95% air. After 24 hour cultivation, culture medium was changed to the test-compound containing medium (0.5 ml/well), and the cultivation was conducted for 2 weeks at 37° C. under an atmosphere of 5% CO2, 95% air. The change of medium was conducted on 27 days after onset of cultivation. […]
SMILES,general side effect (6 weeks-old male rat),"intracellular content of S100β (S100β; 30 micromol/L-treated group (n=4), P<0.001 Dunnett test) [ng/mg unit protein]",intracellular content of S100β (S100β; 100 micromol/L-treated group) [ng/mg unit protein]
"CCC[C@H](CCCCC(C)=O)C(=O)O [Example 1(1), (2R)-7-oxo-2-propyloctanoic acid]",does not show a general side effect,1489.0±37.84,1053.5±39.57
"CCC[C@H](CCCC[C@@H](C)O)C(=O)O [Example 1(2), (2R,7R)-7-hydroxy-2-propyloctanoic acid]",–,–,1422.5±74.70
"CCC[C@H](CCCCCCO)C(=O)O [Example 1(4), (2R)-8-hydroxy-2-propyloctanoic acid]",does not show a general side effect,–,1192.8±58.78
